From patent publication US20250145633A1, “SUBSTITUTED FURANOPYRIMIDINE COMPOUNDS AS PDE1 INHIBITORS” (Dart NeuroScience, LLC, priority 2017, published 2025)

Biological target: human PDE1B enzyme (Homo sapiens (Human), UniProt Q01064)
Test: IMAP TR-FRET PDE1B enzymatic assay
Format: biochemical
Settings: negative log of half-maximal molar inhibitory concentration, 200 nM FAM-cAMP, values given as bins; for IC50: read-out: PDE1b (pIC50) (converted)
In short: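 Full-length GST-tagged human PDE1B (250 pg/well) in IMAP BSA buffer with 10 U/ml calmodulin and 2.5 mM CaCl2; compound pre-incubated 5 min at room temperature, then 200 nM (final) FAM-cAMP for 30 min. IMAP binding reagent/Tb added, 1 h; TR-FRET 520/490 ratio read. IC50 from sigmoidal dose-response fit.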

Structure (SMILES) | IC50 [nM] | PDE1b (pIC50)
Cc1ccnc(NC(=O)c2c(C)oc3ncnc(NC4(C)CC4)c23)c1 [Example 427, 6-Methyl-4-[(1-methylcyclopropyl)amino]-N-(4-methylpyridin-2-yl)furo[2,3-d]pyrimidine-5-carboxamide] | 100 to 1000 | 
Cc1cccnc1NC(=O)c1c(C)oc2ncnc(NC3(C)CC3)c12 [Example 428, 6-Methyl-4-[(1-methylcyclopropyl)amino]-N-(3-methylpyridin-2-yl)furo[2,3-d]pyrimidine-5-carboxamide] | 100 to 1000 | 
COCCn1cc(NC(=O)c2c(C)oc3ncnc(NC4(C)CC4)c23)cn1 [Example 429, N-[1-(2-Methoxyethyl)-1H-pyrazol-4-yl]-6-methyl-4-[(1-methylcyclopropyl)amino]furo[2,3-d]pyrimidine-5-carboxamide] | 10 to 100 | 
Cc1oc2ncnc(NC3(C)CC3)c2c1C(=O)NC12CC(C1)C2 [Example 430, N-{Bicyclo[1.1.1]pentan-1-yl}-6-methyl-4-[(1-methylcyclopropyl)amino]furo[2,3-d]pyrimidine-5-carboxamide] | 10 to 100 | 
Cc1oc2ncnc(NC3(C)CC3)c2c1C(=O)N1CCC(c2ncc(C(F)(F)F)cn2)CC1 [Example 431, 6-Methyl-N-(1-methylcyclopropyl)-5-{4-[5-(trifluoromethyl)pyrimidin-2-yl]piperidine-1-carbonyl}furo[2,3-d]pyrimidin-4-amine] | 10 to 100 | 
Cc1cn(C)nc1NC(=O)c1c(C)oc2ncnc(NC3(C)CC3)c12 [Example 432, N-(1,4-Dimethyl-1H-pyrazol-3-yl)-6-methyl-4-[(1-methylcyclopropyl)amino]furo[2,3-d]pyrimidine-5-carboxamide] | 10 to 100 | 
Cc1nc(NC(=O)c2c(C)oc3ncnc(NC4(C)CC4)c23)sc1C [Example 433, N-(Dimethyl-1,3-thiazol-2-yl)-6-methyl-4-[(1-methylcyclopropyl)amino]furo[2,3-d]pyrimidine-5-carboxamide] | 10 to 100 | 
Cc1ccc(NC(=O)c2c(C)oc3ncnc(NC4(C)CC4)c23)nn1 [Example 434, 6-Methyl-4-[(1-methylcyclopropyl)amino]-N-(6-methylpyridazin-3-yl)furo[2,3-d]pyrimidine-5-carboxamide] | 100 to 1000 | 
Cc1oc2ncnc(NC3(C)CC3)c2c1C(=O)Nc1cn(C)cn1 [Example 435, 6-Methyl-N-(1-methyl-1H-imidazol-4-yl)-4-[(1-methylcyclopropyl)amino]furo[2,3-d]pyrimidine-5-carboxamide] | 100 to 1000 | 
Cc1nc(NC(=O)c2c(C)oc3ncnc(NC4(C)CC4)c23)ccc1F [Example 436, N-(5-Fluoro-6-methylpyridin-2-yl)-6-methyl-4-[(1-methylcyclopropyl)amino]furo[2,3-d]pyrimidine-5-carboxamide] | 10 to 100 | 
Cc1cncc(NC(=O)c2c(C)oc3ncnc(NC4(C)CC4)c23)n1 [Example 437, 6-Methyl-4-[(1-methylcyclopropyl)amino]-N-(6-methylpyrazin-2-yl)furo[2,3-d]pyrimidine-5-carboxamide] | 100 to 1000 | 
Cc1ccc(NC(=O)c2c(C)oc3ncnc(NC4(C)CC4)c23)nc1 [Example 438, 6-Methyl-4-[(1-methylcyclopropyl)amino]-N-(5-methylpyridin-2-yl)furo[2,3-d]pyrimidine-5-carboxamide] | 100 to 1000 | 
Cc1oc2ncnc(NC3(C)CC3)c2c1C(=O)Nc1cc(C)n(C)n1 [Example 439, N-(1,5-Dimethyl-1H-pyrazol-3-yl)-6-methyl-4-[(1-methylcyclopropyl)amino]furo[2,3-d]pyrimidine-5-carboxamide] | 100 to 1000 | 
COCCn1ccc(NC(=O)c2c(C)oc3ncnc(NC4(C)CC4)c23)n1 [Example 440, N-[1-(2-Methoxyethyl)-1H-pyrazol-3-yl]-6-methyl-4-[(1-methylcyclopropyl)amino]furo[2,3-d]pyrimidine-5-carboxamide] | 10 to 100 | 
Cc1ncc(NC(=O)c2c(C)oc3ncnc(NC4(C)CC4)c23)nc1C [Example 441, N-(5,6-Dimethylpyrazin-2-yl)-6-methyl-4-[(1-methylcyclopropyl)amino]furo[2,3-d]pyrimidine-5-carboxamide] | 10 to 100 | 
Cc1nc(NC(=O)c2c(C)oc3ncnc(NC4(C)CC4)c23)oc1C [Example 442, N-(Dimethyl-1,3-oxazol-2-yl)-6-methyl-4-[(1-methylcyclopropyl)amino]furo[2,3-d]pyrimidine-5-carboxamide] | 10 to 100 | 
Cc1csc(NC(=O)c2c(C)oc3ncnc(NC4(C)CC4)c23)n1 [Example 443, 6-Methyl-N-(4-methyl-1,3-thiazol-2-yl)-4-[(1-methylcyclopropyl)amino]furo[2,3-d]pyrimidine-5-carboxamide] | 10 to 100 | 
Cc1oc2ncnc(NC3(C)CC3)c2c1C(=O)N1CCC(C#N)(c2cccc(F)n2)CC1 [Example 444, 4-(6-Fluoropyridin-2-yl)-1-{6-methyl-4-[(1-methylcyclopropyl)amino]furo[2,3-d]pyrimidine-5-carbonyl}piperidine-4-carbonitrile] | 10 to 100 | 

Structure (SMILES) | IC50 [nM] | PDE1b (pIC50)
Cc1oc2ncnc(NC3(C)CC3)c2c1C(=O)Nc1ccn(C(C)C)n1 [Example 445, 6-Methyl-4-[(1-methylcyclopropyl)amino]-N-[1-(propan-2-yl)-1H-pyrazol-3-yl]furo[2,3-d]pyrimidine-5-carboxamide] | 10 to 100 | 
Cc1oc2ncnc(NC3(C)CC3)c2c1C(=O)Nc1ccn(-c2ncccc2F)n1 [Example 446, N-[1-(3-Fluoropyridin-2-yl)-1H-pyrazol-3-yl]-6-methyl-4-[(1-methylcyclopropyl)amino]furo[2,3-d]pyrimidine-5-carboxamide] | 10 to 100 | 
Cc1oc2ncnc(NC3(C)CC3)c2c1C(=O)Nc1cnn(-c2ncccc2F)c1 [Example 447, N-[1-(3-Fluoropyridin-2-yl)-1H-pyrazol-4-yl]-6-methyl-4-[(1-methylcyclopropyl)amino]furo[2,3-d]pyrimidine-5-carboxamide] | 10 to 100 | 
Cc1cnc(CNC(=O)c2c(C)oc3ncnc(NC4(C)CC4)c23)o1 [Example 448, 6-Methyl-N-[(5-methyl-1,3-oxazol-2-yl)methyl]-4-[(1-methylcyclopropyl)amino]furo[2,3-d]pyrimidine-5-carboxamide] | 10 to 100 | 
COc1nccc(CNC(=O)c2c(C)oc3ncnc(NC4(C)CC4)c23)n1 [Example 449, N-[(2-Methoxypyrimidin-4-yl)methyl]-6-methyl-4-[(1-methylcyclopropyl)amino]furo[2,3-d]pyrimidine-5-carboxamide] | 10 to 100 | 
Cc1oc2ncnc(NC3(C)CC3)c2c1C(=O)NCc1ccc(C(F)(F)F)cn1 [Example 450, 6-Methyl-4-[(1-methylcyclopropyl)amino]-N-{[5-(trifluoromethyl)pyridin-2-yl]methyl}furo[2,3-d]pyrimidine-5-carboxamide] |  | >8
Cc1coc(NC(=O)c2c(C)oc3ncnc(NC4(C)CC4)c23)n1 [Example 451, 6-Methyl-N-(4-methyl-1,3-oxazol-2-yl)-4-[(1-methylcyclopropyl)amino]furo[2,3-d]pyrimidine-5-carboxamide] | 10 to 100 | 
Cc1noc(NC(=O)c2c(C)oc3ncnc(NC4(C)CC4)c23)n1 [Example 452, 6-Methyl-N-(3-methyl-1 2 4-oxadiazol-5-yl)-4-[(1-methylcyclopropyl)amino]furo[2,3-d]pyrimidine-5-carboxamide] | 10 to 100 | 
Cc1nc(NC(=O)c2c(C)oc3ncnc(NC4(C)CC4)c23)cs1 [Example 453, 6-Methyl-N-(2-methyl-1,3-thiazol-4-yl)-4-[(1-methylcyclopropyl)amino]furo[2,3-d]pyrimidine-5-carboxamide] | 10 to 100 | 
Cc1nsc(NC(=O)c2c(C)oc3ncnc(NC4(C)CC4)c23)n1 [Example 454, 6-Methyl-N-(3-methyl-1,2,4-thiadiazol-5-yl)-4-[(1-methylcyclopropyl)amino]furo[2,3-d]pyrimidine-5-carboxamide] |  | >8
Cc1ncnc2c1CCN(C(=O)c1c(C)oc3ncnc(NC4(C)CC4)c13)C2 [Example 455, 6-Methyl-5-f{4-methyl-5H,6H,7H,8H-pyrido[3,4-d]pyrimidine-7-carbonyl}-N-(1-methylcyclopropyl)furo[2,3-d]pyrimidin-4-amine] | 10 to 100 | 
Cc1oc2ncnc(NC3(C)CC3)c2c1C(=O)Nc1cnn(C2CCOCC2)c1 [Example 456, 6-Methyl-4-[(1-methylcyclopropyl)amino]-N-[1-(oxan-4-yl)-1H-pyrazol-4-yl]furo[2,3-d]pyrimidine-5-carboxamide] | 10 to 100 | 
Cc1oc2ncnc(NC3(C)CC3)c2c1C(=O)NCc1noc(C(F)(F)F)n1 [Example 457, 6-Methyl-4-[(1-methylcyclopropyl)amino]-N-{[5-(trifluoromethyl)-1,2,4-oxadiazol-3-yl]methyl}furo[2,3-d]pyrimidine-5-carboxamide] | 10 to 100 | 
Cc1ccnc(CNC(=O)c2c(C)oc3ncnc(NC4(C)CC4)c23)n1 [Example 458, 6-Methyl-4-[(1-methylcyclopropyl)amino]-N-[(4-methylpyrimidin-2-yl)methyl]furo[2,3-d]pyrimidine-5-carboxamide] | 10 to 100 | 
Cc1cc(C)nc(CNC(=O)c2c(C)oc3ncnc(NC4(C)CC4)c23)n1 [Example 459, N-[(4,6-Dimethylpyrimidin-2-yl)methyl]-6-methyl-4-[(1-methylcyclopropyl)amino]furo[2,3-d]pyrimidine-5-carboxamide] | 10 to 100 | 
Cc1cnc(CNC(=O)c2c(C)oc3ncnc(NC4(C)CC4)c23)cn1 [Example 460, 6-Methyl-4-[(1-methylcyclopropyl)amino]-N-[(5-methylpyrazin-2-yl)methyl]furo[2,3-d]pyrimidine-5-carboxamide] |  | >8
Cc1nc(CNC(=O)c2c(C)oc3ncnc(NC4(C)CC4)c23)no1 [Example 461, 6-Methyl-N-[(5-methyl-1,2,4-oxadiazol-3-yl)methyl]-4-[(1-methylcyclopropyl)amino]furo[2,3-d]pyrimidine-5-carboxamide] | 10 to 100 | 
